This assay concerns the target hT2R8 (Homo sapiens (Human), UniProt Q9NYW2). Description: hT2R8 antagonist high-throughput FLIPR assay, stable cell line with G16g44, agonist andrographolide. The format is cell-based. The source says:
After a ligand is identified for a particular hT2R, a HEK293 cell line stably expressing both the hT2R and G16gust44 are generated, facilitating future screening assays to identify other ligands that activate the particular hT2R or which modulate (block or enhance) the activation of this hT2R by another bitter ligand such as a bitter compound contained in coffee. This avoids the need for transient transfection.
To identify antagonists, cell lines stably expressing hT2R8 and hT2R14, respectively, together with the promiscuous chimeric G16g44 protein were generated as described in previous patent applications. A high-throughput assay was established using the stable cell lines and FLIPR (Fluorescent Imaging Plate Reader). An agonist of hT2R8 or hT2R14 was used to activate the receptors up to 70-80% of their respective maximal activity. For hT2R8, the agonist used was andrographolide (200 […]); for hT2R14, it was aristolochic acid (3 μM). To identify antagonists, compounds with diverse chemical structures were added together with the agonist.
To identify antagonists, cell lines stably expressing hT2R8 together with the promiscuous chimeric G16g44 protein were generated as described in previous patent applications. A high-throughput assay was established using the stable cell lines and FLIPR (Fluorescent Imaging Plate Reader). An agonist of hT2R8 was used to activate the receptors up to 70-80% of their respective maximal activity. For hT2R8, the agonist used was andrographolide (200 μM). To identify antagonists, compounds with diverse chemical structures were added together with the agonist.

The mark [1] stands for this setting: table after Example 12-37, read-out: hT2R8 IC50.
Setting [2] is: read-out: IC50 on hT2R8 bitter receptor.
The mark [3] stands for this setting: table after Example 10-97, read-out: hT2R8 IC50.
Where [4] appears, read: unit uM, read-out: IC50 on hT2R08 bitter receptor.

Read-outs that look alike come from different tables or passages of the source.

Sequence of hT2R8 (Q9NYW2 whole entry): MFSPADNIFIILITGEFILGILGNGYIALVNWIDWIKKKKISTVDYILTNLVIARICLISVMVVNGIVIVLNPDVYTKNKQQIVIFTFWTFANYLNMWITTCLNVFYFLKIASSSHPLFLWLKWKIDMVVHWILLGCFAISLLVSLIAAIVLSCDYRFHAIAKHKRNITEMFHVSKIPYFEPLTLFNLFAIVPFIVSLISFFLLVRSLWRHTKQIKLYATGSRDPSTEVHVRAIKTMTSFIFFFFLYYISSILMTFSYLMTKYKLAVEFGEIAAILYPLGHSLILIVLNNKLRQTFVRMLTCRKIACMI

For the compound `COc1cccc(C(=O)Nc2nnn(Cc3c(C)noc3C)n2)c1` [Example 4-114, N-(2-((3,5-dimethylisoxazol-4-yl)methyl)-2H-tetrazol-5-yl)-3-methoxybenzamide], under “Table A, read-out: hT2R8 IC50”, the 50% inhibitory concentration (IC50) is 1.87 µM.
Take `COc1cccc(CC(=O)Nc2cnn(Cc3c(C)noc3C)c2)c1OC` [Example 4-31, 2-(2,3-dimethoxyphenyl)-N-(1-((3,5-dimethylisoxazol-4-yl)methyl)-1H-pyrazol-4-yl)acetamide]: the concentration for half-maximal inhibition (IC50) (Table A, read-out: hT2R8 IC50) worked out at 0.8 µM.
For `COc1cccc(F)c1CN1C(=O)N(c2cnn(Cc3c(C)noc3C)c2)C(=O)C1(C)C` [Example 12-65, 3-(1-((3,5-dimethylisoxazol-4-yl)methyl)-1H-pyrazol-4-yl)-1-(2-fluoro-6-methoxybenzyl)-5,5-dimethylimidazolidine-2,4-dione], the IC50 under setting [1] came out at 0.31 µM.
In the case of `Cc1noc(C)c1Cn1cc(-n2c(=O)n(Cc3ccccc3)n(Cc3ccccc3)c2=O)cn1` [Example 10-70, 1,2-dibenzyl-4-(1-((3,5-dimethylisoxazol-4-yl)methyl)-1H-pyrazol-4-yl)-1,2,4-triazolidine-3,5-dione], the IC50 is, setting by setting: under setting [2], 0.8 µM; under setting [3], 1.8 µM.
Take `Cc1noc(C)c1Cn1cc(N2C(=O)CN(Cc3ccc(O)cc3)C2=O)cn1` [Example 10-12, 3-(1-((3,5-dimethylisoxazol-4-yl)methyl)-1H-pyrazol-4-yl)-1-(4-hydroxybenzyl)imidazolidine-2,4-dione]: the IC50 under setting [3] amounted to 0.043 µM and the half-inhibitory concentration (IC50) under setting [4] stood at 0.06 µM.
For the compound `COc1ccc(CN2C(=O)N(c3cnn(Cc4c(C)noc4C)c3)C(=O)C23CC3)cc1OC` [Example 12-13, 4-(3,4-dimethoxybenzyl)-6-(1-((3,5-dimethylisoxazol-4-yl)methyl)-1H-pyrazol-4-yl)-4,6-diazaspiro[2.4]heptane-5,7-dione], the IC50 under setting [2] was 0.02 µM.
Regarding `Cc1noc(C)c1Cn1cc(N(C)C(=O)[C@@H](C)c2ccccc2)cn1` [Example 4-98, (S)-N-(1-((3,5-dimethylisoxazol-4-yl)methyl)-1H-pyrazol-4-yl)-N-methyl-2-phenylpropanamide], the IC50 (Table A, read-out: hT2R8 IC50) was found to be 2.81 µM.
On to `Cc1noc(C)c1Cn1cc(N2C(=O)CN(CCc3ccccc3F)C2=O)cn1` [Example 10-83, 3-(1-((3,5-dimethylisoxazol-4-yl)methyl)-1H-pyrazol-4-yl)-1-(2-fluorophenethyl)imidazolidine-2,4-dione], for which the IC50 was 0.13 µM under setting [2] and 0.442 µM under setting [3].
`CC(=O)OC(C(=O)Nc1cnn(Cc2c(C)noc2C)c1)c1ccccc1` (stereo not drawn) [Example 4-39, 2-(1-((3,5-dimethylisoxazol-4-yl)methyl)-1H-pyrazol-4-ylamino)-2-oxo-1-phenylethyl acetate]: where the note is “Table A, read-out: hT2R8 IC50”, the half-inhibitory concentration (IC50) stood at 0.83 µM.
For the compound `Cc1noc(C)c1Cn1cc(N2CNCN(Cc3ccccc3)C2=O)cn1` [Example 9-6, 1-benzyl-3-(1-((3,5-dimethylisoxazol-4-yl)methyl)-1H-pyrazol-4-yl)-1,3,5-triazinan-2-one], the IC50 by setting is: under setting [2], 5.84 µM; under setting [3], 6.03 µM.
In the case of `CO[C@H](C(=O)Nc1cnn(Cc2c(C)noc2C)c1)c1ccccc1` [Example 4-67, (S)-N-(1-((3,5-dimethylisoxazol-4-yl)methyl)-1H-pyrazol-4-yl)-2-methoxy-2-phenylacetamide], the IC50 (Table A, read-out: hT2R8 IC50) was 8.6 µM.
Consider `Cc1noc(C)c1Cn1cc(N2C(=O)CN(Cc3ccccc3O)C2=O)cn1` [Example 10-11, 3-(1-((3,5-dimethylisoxazol-4-yl)methyl)-1H-pyrazol-4-yl)-1-(2-hydroxybenzyl)imidazolidine-2,4-dione], for which the IC50 is 0.069 µM under setting [3] and 0.07 µM under setting [4].
For the compound `COc1ccc(CN2C(=O)N(c3cnn(Cc4c(C)noc4C)c3)C(=O)C2(C)C)cc1` [Example 12-33, 3-(1-((3,5-dimethylisoxazol-4-yl)methyl)-1H-pyrazol-4-yl)-1-(4-methoxybenzyl)-5,5-dimethylimidazolidine-2,4-dione], the IC50 under setting [2] came to 0.11 µM.
Take `Cc1noc(C)c1Cn1cc(NC(=O)C(CO)c2ccccc2)cn1` (stereo not drawn) [Example 4-40, N-(1-((3,5-dimethylisoxazol-4-yl)methyl)-1H-pyrazol-4-yl)-3-hydroxy-2-phenylpropanamide]: for the setting “Table A, read-out: hT2R8 IC50”, the half-inhibitory concentration (IC50) is 0.96 µM.
In the case of `COc1ccccc1CCN1C(=O)N(c2cnn(Cc3c(C)noc3C)c2)C(=O)C1(C)C` [Example 12-58, 3-(1-((3,5-dimethylisoxazol-4-yl)methyl)-1H-pyrazol-4-yl)-1-(2-methoxyphenethyl)-5,5-dimethylimidazolidine-2,4-dione], the half-maximal inhibitory concentration (IC50) under setting [1] is 0.24 µM.
For `Cc1noc(C)c1Cn1cc(NC(=S)Nc2ccccc2C#N)cn1` [Example 4-111, 1-(2-cyanophenyl)-3-(1-((3,5-dimethylisoxazol-4-yl)methyl)-1H-pyrazol-4-yl)thiourea], the IC50 (Table A, read-out: hT2R8 IC50) was 2.35 µM.
Take `Cc1noc(C)c1Cn1cc(NC(=O)c2ccoc2C)cn1` [Example 4-51, N-(1-((3,5-dimethylisoxazol-4-yl)methyl)-1H-pyrazol-4-yl)-2-methylfuran-3-carboxamide]: the IC50 (Table A, read-out: hT2R8 IC50) is 7.87 µM.
On the same count and under the same terms, as for `Cc1ccc(C(=O)Nc2cnn(Cc3c(C)noc3C)c2)o1` [Example 4-54, N-(1-((3,5-dimethylisoxazol-4-yl)methyl)-1H-pyrazol-4-yl)-5-methylfuran-2-carboxamide], the figure is 3.19 µM.
Still for that read-out and setting: to `Cc1c[nH]c(C(=O)Nc2cnn(Cc3c(C)noc3C)c2)c1` [Example 4-45, N-(1-((3,5-dimethylisoxazol-4-yl)methyl)-1H-pyrazol-4-yl)-4-methyl-1H-pyrrole-2-carboxamide] belongs 0.72 µM.
Regarding `COc1ccc(CN2CC(=O)N(c3cnn(Cc4c(C)noc4C)c3)C2=O)cc1OC` [Example 10-35, 1-(3,4-dimethoxybenzyl)-3-(1-((3,5-dimethylisoxazol-4-yl)methyl)-1H-pyrazol-4-yl)imidazolidine-2,4-dione], the IC50 turned out to be 0.051 µM under setting [3] and 0.06 µM under setting [4].
`Cc1noc(C)c1Cn1cc(N(C)C(=O)C(C)c2ccccc2)cn1` (stereo not drawn) [Example 4-65, N-(1-((3,5-dimethylisoxazol-4-yl)methyl)-1H-pyrazol-4-yl)-N-methyl-2-phenylpropanamide]: for the setting “Table A, read-out: hT2R8 IC50”, the IC50 came to 2.81 µM.
Still for that read-out and setting: as for `Cc1noc(C)c1Cn1cc(NC(=O)c2ccc3c(c2)OCCO3)cn1` [Example 4-88, N-(1-((3,5-dimethylisoxazol-4-yl)methyl)-1H-pyrazol-4-yl)-2,3-dihydrobenzo[b][1,4]dioxine-6-carboxamide], the figure is 0.4 µM.
With `Cc1cc(C(=O)Nc2cnn(Cc3c(C)noc3C)c2)c(C)o1` [Example 4-53, N-(1-((3,5-dimethylisoxazol-4-yl)methyl)-1H-pyrazol-4-yl)-2,5-dimethylfuran-3-carboxamide], the IC50 (Table A, read-out: hT2R8 IC50) was 3.03 µM.
Regarding `Cc1noc(C)c1Cn1cc(N2C(=O)C(C)N(Cc3ccccc3)C2=O)cn1` (stereo not drawn) [Example 10-43, 1-benzyl-3-(1-((3,5-dimethylisoxazol-4-yl)methyl)-1′-1-pyrazol-4-yl)-5-methylimidazolidine-2,4-dione], the concentration for half-maximal inhibition (IC50) is, setting by setting: under setting [2], 0.02 µM; under setting [3], 0.02 µM.
In the case of `Cc1noc(C)c1Cn1cc(N2C(=O)N(CCOc3ccccc3)C(C)(C)C2=O)cn1` [Example 12-27, 3-(1-((3,5-dimethylisoxazol-4-yl)methyl)-1H-pyrazol-4-yl)-5,5-dimethyl-1-(2-phenoxyethyl)imidazolidine-2,4-dione], the half-maximal inhibitory concentration (IC50) under setting [2] worked out at 0.35 µM.
`Cc1noc(C)c1CN1CC(=O)N(c2cnn(Cc3c(C)noc3C)c2)C1=O` [Example 10-55, 1-((3,5-dimethylisoxazol-4-yl)methyl)-3-(1-((3,5-dimethylisoxazol-4-yl)methyl)-1H-pyrazol-4-yl)imidazolidine-2,4-dione]: the IC50 under setting [2] was 0.04 µM and the IC50 under setting [3] was found to be 0.479 µM.
In the case of `Cc1noc(C)c1Cn1cc(N2C(=O)CNC2=O)cn1` [Example 10-1, 3-(1-((3,5-dimethylisoxazol-4-yl)methyl)-1H-pyrazol-4-yl)imidazolidine-2,4-dione], the IC50 is, setting by setting: under setting [2], 1.7 µM; under setting [3], 1.7 µM.
With `COc1cc2c(cc1C(=O)Nc1cnn(Cc3c(C)noc3C)c1)OCCO2` [Example 4-95, N-(1-((3,5-dimethylisoxazol-4-yl)methyl)-1H-pyrazol-4-yl)-7-methoxy-2,3-dihydrobenzo[b][1,4]dioxine-6-carboxamide], the concentration for half-maximal inhibition (IC50) under setting [2] was found to be 0.7 µM.
As to `Cc1noc(C)c1Cn1cc(N2C(=O)NC(CC(C)C)C2=O)cn1` (stereo not drawn) [Example 10-61, 3-(1-((3,5-dimethylisoxazol-4-yl)methyl)-1H-pyrazol-4-yl)-5-isobutylimidazolidine-2,4-dione], the half-inhibitory concentration (IC50) under setting [2] was found to be 1 µM and the concentration for half-maximal inhibition (IC50) under setting [3] is 0.912 µM.
On to `Cc1noc(C)c1Cn1cc(N2C(=O)N(Cc3cccc(O)c3)C(C)(CO)C2=O)cn1` (stereo not drawn) [Example 12-10, 3-(1-((3,5-dimethylisoxazol-4-yl)methyl)-1H-pyrazol-4-yl)-1-(3-hydroxybenzyl)-5-(hydroxymethyl)-5-methylimidazolidine-2,4-dione], for which the IC50 under setting [2] stood at 0.13 µM.
On to `COc1ccccc1CN1CC(=O)N(c2cnn(Cc3c(C)noc3C)c2)C1=O` [Example 10-18, 3-(1-((3,5-dimethylisoxazol-4-yl)methyl)-1H-pyrazol-4-yl)-1-(2-methoxybenzyl)imidazolidine-2,4-dione], for which the IC50 worked out at 0.06 µM under setting [3] and 0.06 µM under setting [4].

The values are drawn from patent US9247759B2, “Identification of human T2R receptors that respond to bitter compounds that elicit the bitter taste in compositions, and the use thereof in assays to identify compounds that inhibit (block) bitter taste in compositions and use thereof” (SENOMYX, INC., priority 2007, dated 2016).
